The record followed here is patent publication US20260191863A1, “PYRROLOPYRIMIDINE COMPOSITIONS FOR TREATMENT OF ITK MEDIATED CONDITIONS” (ACLARIS THERAPEUTICS, INC., priority 2022, published 2026).

Holding throughout (type): cell-based
For assay [1], the system named is ITK (IL2 mRNA). In words: Pre-clinical human whole blood αCD3/28/IL-2 mRNA (2 hr). Particulars: Homo sapiens, 2 h; read-out: Human Whole Blood EC50, αCD3/28/IL-2 mRNA (2 hr).
Assay [2] has as its system JAK3 (pSTAT5, lymph). In words: Pre-clinical human whole blood IL-2/pSTAT5 (20 min), lymphocytes. Particulars: Homo sapiens, Lymphocyte, 20 min; read-out: Human Whole Blood EC50, IL-2/pSTAT5 (20 min).
Assay [3] concerns ITK & JAK (IFNγ protein). In words: Pre-clinical human whole blood αCD3 + IL-15/IFNγ (18 hr). Particulars: Homo sapiens, 18 h; read-out: Human Whole Blood EC50, αCD3 + IL-15/IFNγ (18 hr).
Assay [4] has as its system IL15 stimulated IFNγ protein. In words: Pre-clinical human whole blood IL-15/IFNγ (5 hr). Particulars: Homo sapiens, 5 h, read-out: Human Whole Blood EC50, IL-15/IFNγ (5 hr).
Assay [5] addresses T1, JAK2 (Homo sapiens, UniProt O60674).
T1 construct: endogenous in cells
In words: Cell IC50 JAK2.

Assay [6] concerns the target T2, ITK (Homo sapiens, UniProt Q08881).
T2 construct: (Jurkat/pPLCγ1); endogenous in cells; host or cells: Jurkat
T2 sequence (Q08881 1-620): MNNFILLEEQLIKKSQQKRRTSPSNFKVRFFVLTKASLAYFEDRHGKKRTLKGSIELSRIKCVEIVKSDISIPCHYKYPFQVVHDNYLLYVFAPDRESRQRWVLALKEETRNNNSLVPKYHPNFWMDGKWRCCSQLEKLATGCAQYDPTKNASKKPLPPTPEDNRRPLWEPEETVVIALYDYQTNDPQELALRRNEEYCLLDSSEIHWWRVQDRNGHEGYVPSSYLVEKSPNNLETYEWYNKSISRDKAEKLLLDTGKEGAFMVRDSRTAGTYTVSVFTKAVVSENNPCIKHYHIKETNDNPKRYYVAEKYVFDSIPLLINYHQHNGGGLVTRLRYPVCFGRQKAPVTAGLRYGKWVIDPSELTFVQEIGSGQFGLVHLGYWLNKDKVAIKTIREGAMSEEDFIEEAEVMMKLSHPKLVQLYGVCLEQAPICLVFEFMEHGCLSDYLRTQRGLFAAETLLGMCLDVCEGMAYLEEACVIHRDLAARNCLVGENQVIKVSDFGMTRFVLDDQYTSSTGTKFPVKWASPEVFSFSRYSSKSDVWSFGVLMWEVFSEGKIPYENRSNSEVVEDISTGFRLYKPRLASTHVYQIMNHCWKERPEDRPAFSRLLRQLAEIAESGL
In words: Cell IC50 ITK (Jurkat/pPLCγ1).

T1 sequence (O60674 whole entry): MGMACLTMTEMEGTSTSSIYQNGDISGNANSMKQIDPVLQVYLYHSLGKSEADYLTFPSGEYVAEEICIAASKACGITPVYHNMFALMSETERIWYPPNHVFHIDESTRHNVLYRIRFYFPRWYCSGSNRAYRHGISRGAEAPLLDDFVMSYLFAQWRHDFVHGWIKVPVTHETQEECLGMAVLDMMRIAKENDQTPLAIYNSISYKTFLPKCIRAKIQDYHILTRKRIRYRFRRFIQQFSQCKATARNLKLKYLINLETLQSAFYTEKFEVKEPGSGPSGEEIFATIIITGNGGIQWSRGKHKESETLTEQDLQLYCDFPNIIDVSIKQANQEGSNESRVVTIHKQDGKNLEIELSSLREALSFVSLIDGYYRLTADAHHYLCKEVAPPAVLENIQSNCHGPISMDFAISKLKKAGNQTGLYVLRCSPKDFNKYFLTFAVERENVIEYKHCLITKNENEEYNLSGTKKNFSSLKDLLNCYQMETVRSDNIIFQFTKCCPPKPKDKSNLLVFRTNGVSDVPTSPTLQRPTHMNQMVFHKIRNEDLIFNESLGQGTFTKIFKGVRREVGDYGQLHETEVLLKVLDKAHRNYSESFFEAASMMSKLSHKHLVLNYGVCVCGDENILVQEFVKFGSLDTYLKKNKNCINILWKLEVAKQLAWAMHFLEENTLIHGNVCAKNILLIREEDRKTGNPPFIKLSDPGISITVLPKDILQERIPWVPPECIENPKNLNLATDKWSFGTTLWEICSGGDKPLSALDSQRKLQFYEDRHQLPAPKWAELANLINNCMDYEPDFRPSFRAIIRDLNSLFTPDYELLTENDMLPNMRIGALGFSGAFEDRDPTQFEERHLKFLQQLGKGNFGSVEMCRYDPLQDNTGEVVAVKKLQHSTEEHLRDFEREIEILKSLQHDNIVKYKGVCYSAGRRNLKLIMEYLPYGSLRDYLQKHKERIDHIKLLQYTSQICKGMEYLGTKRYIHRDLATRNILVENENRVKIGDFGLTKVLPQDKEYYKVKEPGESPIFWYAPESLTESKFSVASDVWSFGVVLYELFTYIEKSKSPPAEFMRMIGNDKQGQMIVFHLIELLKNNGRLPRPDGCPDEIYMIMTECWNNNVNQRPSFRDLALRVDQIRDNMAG

`C=CC(=O)N1C[C@H](Nc2ncnc3[nH]ccc23)CC[C@@H]1C` [Ritlecitinib, reference compound]: the EC50 in assay [1] worked out at 740 nM; in assay [2], […]; in assay [3], 33 nM; in assay [4], 52 nM. The “Cell IC50, JAK2” value in assay [5] is on record as “Inactive”.
As to `C[C@@H]1CCN(C(=O)CC#N)C[C@@H]1N(C)c1ncnc2[nH]ccc12` [Tofacitinib, reference compound], the “Cell IC50, ITK” value in assay [6] is given as “Inactive”.
